Data from patent US11504349B2, “Composition for preventing or treating TNF-related diseases, containing novel derivative as active ingredient, and method for inhibiting TNF activity by using same” (ILAB, priority 2017, dated 2022).

Columns and labels:
[1] = molecular target: TNF (Homo sapiens, UniProt P01375); assay: TNF-neutralization bioassay: TNF-induced cell death of LM cells (MTT); assay type: cell-based; conditions: compound 50 μM, TNF 20 ng/ml, actinomycin D, LM cells, 24 hours
Procedure: First, the addition of recombinant TNF to mouse fibroblast LM cells induces cell death, and thus, by using the same, the TNF-neutralization bioassay was constructed. In other words, LM cells were pretreated with TNF (20 ng/ml) and the compounds synthesized in the above examples at various concentrations (5×10^4 cells/well), and a sensitizer actinomycin D ([…]) was added, and cultured in a CO2 incubator for 24 hours, and then the MTT assay was carried out. At this time, 10 μl of MTT (5 mg/ml stock) was added, reacted for 4 hours, and then dissolved in DMSO to measure the absorbance at 570 nm. First, the TNF cell death inhibition/neutralization action of TNF-target expected compounds at single concentration (50 or 10 μM) was measured. Second, IC50 values were determined by treating with the compounds having an excellent effect at different concentrations. The % inhibition of TNF was calculated using the following formula: % inhibition of TNF=(OD value of a group treated with TNF and compound−OD value of TNF treated group/(OD value of TNF untreated group−OD value of TNF treated group)×100.
IC50 values were statistically analyzed using Prism 6 (GraphPad) (IC50: 50% inhibitory concentration, CC50: 50% cytotoxic concentration).

Sequence of TNF (P01375 77-233 limits assumed): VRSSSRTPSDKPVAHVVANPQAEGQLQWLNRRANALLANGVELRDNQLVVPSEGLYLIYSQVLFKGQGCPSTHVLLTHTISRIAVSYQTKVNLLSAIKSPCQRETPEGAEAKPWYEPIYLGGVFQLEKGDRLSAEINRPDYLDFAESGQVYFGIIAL

COc1ccc2c(=O)c(C(=O)O)c(-c3cccc(F)c3)oc2c1 [Example 1, 2-(3-fluorophenyl)-3-carboxy-7-methoxy-(4H)-4-benzopyranone]
melting point: 214 to 215 °C | inhibition at 50 µM [1]: 39.1%

COc1cccc2c(=O)c(C(=O)O)c(-c3ccco3)oc12 [Example 2, 2-(2-furanyl)-3-carboxy-8-methoxy-(4H)-4-benzopyranone]
melting point: 195 to 197 °C | inhibition at 50 µM [1]: 46.6%

COc1ccc2c(=O)c(C(=O)O)c(-c3ccco3)oc2c1 [Example 3, 2-(2-furanyl)-3-carboxy-7-methoxy-(4H)-4-benzopyranone]
melting point: 217 to 219 °C | inhibition at 50 µM [1]: 26.3%

COc1ccc2oc(-c3ccco3)c(C(=O)O)c(=O)c2c1 [Example 4, 2-(2-furanyl)-3-carboxy-6-methoxy-(4H)-4-benzopyranone]
melting point: 205 to 207 °C | inhibition at 50 µM [1]: 24.6%

COc1cccc2c(=O)c(C(=O)O)c(-c3cccc(C)c3)oc12 [Example 5, 2-(3-methylphenyl)-3-carboxy-8-methoxy-(4H)-4-benzopyranone]
melting point: 192 to 195 °C | inhibition at 50 µM [1]: 34.4%

COc1ccc2c(=O)c(C(=O)O)c(-c3cccc(C)c3)oc2c1 [Example 6, 2-(3-methylphenyl)-3-carboxy-7-methoxy-(4H)-4-benzopyranone]
melting point: 183 to 184 °C | inhibition at 50 µM [1]: 46%

COc1ccc2oc(-c3cccc(C)c3)c(C(=O)O)c(=O)c2c1 [Example 7, 2-(3-methylphenyl)-3-carboxy-6-methoxy-(4H)-4-benzopyranone]
melting point: 198 to 199 °C | inhibition at 50 µM [1]: 47%

COc1ccc(-c2oc3ccccc3c(=O)c2C(=O)O)cc1OC [Example 8, 2-(3,4-dimethoxyphenyl)-3-carboxy-(4H)-4-benzopyranone]
melting point: 237 to 238 °C | inhibition at 50 µM [1]: 24.3%

COc1ccc2c(=O)c(C(=O)O)c(-c3ccc(OC)c(OC)c3)oc2c1 [Example 9, 2-(3,4-dimethoxyphenyl)-3-carboxy-7-methoxy-(4H)-4-benzopyranone]
melting point: 208 to 210 °C | inhibition at 50 µM [1]: 49.2%

COc1ccc2c(=O)c(C(=O)O)c(-c3ccccc3Cl)oc2c1 [Example 10, 2-(2-chlorophenyl)-3-carboxy-7-methoxy-(4H)-4-benzopyranone]
melting point: 130 to 132 °C | inhibition at 50 µM [1]: 45.6%

O=C(O)c1c(-c2ccccc2Cl)oc2ccccc2c1=O [Example 11, 2-(2-chlorophenyl)-3-carboxy-(4H)-4-benzopyranone]
melting point: 133 to 135 °C | inhibition at 50 µM [1]: 60.6%

COc1cccc2c(=O)c(C(=O)O)c(-c3cccs3)oc12 [Example 12, 2-(2-thiophenyl)-3-carboxy-8-methoxy-(4H)-4-benzopyranone]
melting point: 196 to 198 °C | inhibition at 50 µM [1]: 62.5%

COc1ccc2c(=O)c(C(=O)O)c(-c3cccs3)oc2c1 [Example 13, 2-(2-thiophenyl)-3-carboxy-7-methoxy-(4H)-4-benzopyranone]
melting point: 205 to 207 °C | inhibition at 50 µM [1]: 55.9%

COc1ccc2oc(-c3cccs3)c(C(=O)O)c(=O)c2c1 [Example 14, 2-(2-thiophenyl)-3-carboxy-6-methoxy-(4H)-4-benzopyranone]
melting point: 172 to 174 °C | inhibition at 50 µM [1]: 38.8%

O=C(O)c1c(-c2cccs2)oc2ccccc2c1=O [Example 15, 2-(2-thiophenyl)-3-carboxy-(4H)-4-benzopyranone]
melting point: 175 to 176 °C | inhibition at 50 µM [1]: 47.5%

O=C(O)c1c(-c2ccco2)oc2ccccc2c1=O [Example 18, 2-(2-furanyl)-3-carboxy-(4H)-4-benzopyranone]
melting point: 202 to 205 °C | inhibition at 50 µM [1]: 48.6%

Cc1cccc(-c2oc3ccccc3c(=O)c2C(=O)O)c1 [Example 19, 2-(3-methylphenyl)-3-carboxy-(4H)-4-benzopyranone]
melting point: 162 to 164 °C | inhibition at 50 µM [1]: 48.3%

Cc1cccc2c(=O)c(C(=O)O)c(-c3ccco3)oc12 [Example 20, 2-(2-furanyl)-3-carboxy-8-methyl-(4H)-4-benzopyranone]
melting point: 227 to 228 °C | inhibition at 50 µM [1]: 59%

Cc1ccc2c(=O)c(C(=O)O)c(-c3ccco3)oc2c1 [Example 21, 2-(2-furanyl)-3-carboxy-7-methyl-(4H)-4-benzopyranone]
melting point: 217 to 218 °C | inhibition at 50 µM [1]: 55.2%

Cc1ccc2oc(-c3ccco3)c(C(=O)O)c(=O)c2c1 [Example 22, 2-(2-furanyl)-3-carboxy-6-methyl-(4H)-4-benzopyranone]
melting point: 195 to 197 °C | inhibition at 50 µM [1]: 50.4%

Cc1cccc(-c2oc3c(C)cccc3c(=O)c2C(=O)O)c1 [Example 25, 2-(3-methylphenyl)-3-carboxy-8-methyl-(4H)-4-benzopyranone]
melting point: 209 to 211 °C | inhibition at 50 µM [1]: 41%

Cc1cccc(-c2oc3cc(C)ccc3c(=O)c2C(=O)O)c1 [Example 26, 2-(3-methylphenyl)-3-carboxy-7-methyl-(4H)-4-benzopyranone]
melting point: 152 to 155 °C | inhibition at 50 µM [1]: 45.1%

Cc1cccc(-c2oc3ccc(C)cc3c(=O)c2C(=O)O)c1 [Example 27, 2-(3-methylphenyl)-3-carboxy-6-methyl-(4H)-4-benzopyranone]
melting point: 192 to 195 °C | inhibition at 50 µM [1]: 65.2%

Cc1cccc(-c2oc3cc(Cl)ccc3c(=O)c2C(=O)O)c1 [Example 28, 2-(3-methylphenyl)-3-carboxy-7-chloro-(4H)-4-benzopyranone]
melting point: 179 to 181 °C | inhibition at 50 µM [1]: 34.9%

Cc1cccc(-c2oc3ccc(Cl)cc3c(=O)c2C(=O)O)c1 [Example 29, 2-(3-methylphenyl)-3-carboxy-6-chloro-(4H)-4-benzopyranone]
melting point: 218 to 220 °C | inhibition at 50 µM [1]: 45.7%

Cc1cccc2c(=O)c(C(=O)O)c(-c3cccs3)oc12 [Example 31, 2-(2-thiophenyl)-3-carboxy-8-methyl-(4H)-4-benzopyranone]
melting point: 205 to 206 °C | inhibition at 50 µM [1]: 24.8%

Cc1ccc2c(=O)c(C(=O)O)c(-c3cccs3)oc2c1 [Example 32, 2-(2-thiophenyl)-3-carboxy-7-methyl-(4H)-4-benzopyranone]
melting point: 202 to 203 °C | inhibition at 50 µM [1]: 23.6%

Cc1ccc2oc(-c3cccs3)c(C(=O)O)c(=O)c2c1 [Example 33, 2-(2-thiophenyl)-3-carboxy-6-methyl-(4H)-4-benzopyranone]
melting point: 153 to 155 °C | inhibition at 50 µM [1]: 20.7%

O=C(O)c1c(-c2cccs2)oc2cc(Cl)ccc2c1=O [Example 34, 2-(2-thiophenyl)-3-carboxy-7-chloro-(4H)-4-benzopyranone]
melting point: 232 to 233 °C | inhibition at 50 µM [1]: 21.7%

O=C(O)c1c(-c2cccs2)oc2ccc(Cl)cc2c1=O [Example 35, 2-(2-thiophenyl)-3-carboxy-6-chloro-(4H)-4-benzopyranone]
melting point: 202 to 204 °C | inhibition at 50 µM [1]: 28.1%

O=C(O)c1c(-c2cccs2)oc2ccc(Br)cc2c1=O [Example 36, 2-(2-thiophenyl)-3-carboxy-6-bromo-(4H)-4-benzopyranone]
melting point: 210 to 212 °C | inhibition at 50 µM [1]: 27%

COc1ccc(-c2oc3c(C)cccc3c(=O)c2C(=O)O)cc1OC [Example 37, 2-(3,4-dimethoxyphenyl)-3-carboxy-8-methyl-(4H)-4-benzopyranone]
melting point: 210 to 212 °C | inhibition at 50 µM [1]: 33.4%

COc1ccc(-c2oc3cc(C)ccc3c(=O)c2C(=O)O)cc1OC [Example 38, 2-(3,4-dimethoxyphenyl)-3-carboxy-7-methyl-(4H)-4-benzopyranone]
melting point: 200 to 201 °C | inhibition at 50 µM [1]: 30.9%

COc1ccc(-c2oc3cc(Cl)ccc3c(=O)c2C(=O)O)cc1OC [Example 39, 2-(3,4-dimethoxyphenyl)-3-carboxy-7-chloro-(4H)-4-benzopyranone]
melting point: 226 to 227 °C | inhibition at 50 µM [1]: 24.5%

Cc1cccc2c(=O)c(C(=O)O)c(-c3cccc(F)c3)oc12 [Example 41, 2-(3-fluorophenyl)-3-carboxy-8-methyl-(4H)-4-benzopyranone]
melting point: 227 to 229 °C | inhibition at 50 µM [1]: 37.2%

Cc1ccc2c(=O)c(C(=O)O)c(-c3cccc(F)c3)oc2c1 [Example 42, 2-(3-fluorophenyl)-3-carboxy-7-methyl-(4H)-4-benzopyranone]
melting point: 178 to 181 °C | inhibition at 50 µM [1]: 23%

Cc1ccc2oc(-c3cccc(F)c3)c(C(=O)O)c(=O)c2c1 [Example 43, 2-(3-fluorophenyl)-3-carboxy-6-methyl-(4H)-4-benzopyranone]
melting point: 214 to 215 °C | inhibition at 50 µM [1]: 19.4%

Cc1cccc2c(=O)c(C(=O)O)c(-c3cc(F)cc(F)c3)oc12 [Example 47, 2-(3,5-difluorophenyl)-3-carboxy-8-methyl-(4H)-4-benzopyranone]
melting point: 243 to 244 °C | inhibition at 50 µM [1]: 21.4%

Cc1ccc2c(=O)c(C(=O)O)c(-c3cc(F)cc(F)c3)oc2c1 [Example 48, 2-(3,5-difluorophenyl)-3-carboxy-7-methyl-(4H)-4-benzopyranone]
melting point: 220 to 222 °C | inhibition at 50 µM [1]: 29%
